Experimental data: patent US10000471B2, “Pyrazole P38 map kinase inhibitors” (Respivert Limited, priority 2010, dated 2018)
Entries after “also recorded” stand apart in the source; their conditions may differ.

What was measured:
[1] = target: T1, p38 MAPKγ (MAPK12) (Homo sapiens, UniProt P53778); assay: Enzyme inhibition assay (FRET, Z-LYTE), p38 MAPKγ; assay type: biochemical; details: read-out: Enzyme Inhibition IC50 p38γ
T1 construct: purchased Invitrogen
T1 sequence (P53778 1-367): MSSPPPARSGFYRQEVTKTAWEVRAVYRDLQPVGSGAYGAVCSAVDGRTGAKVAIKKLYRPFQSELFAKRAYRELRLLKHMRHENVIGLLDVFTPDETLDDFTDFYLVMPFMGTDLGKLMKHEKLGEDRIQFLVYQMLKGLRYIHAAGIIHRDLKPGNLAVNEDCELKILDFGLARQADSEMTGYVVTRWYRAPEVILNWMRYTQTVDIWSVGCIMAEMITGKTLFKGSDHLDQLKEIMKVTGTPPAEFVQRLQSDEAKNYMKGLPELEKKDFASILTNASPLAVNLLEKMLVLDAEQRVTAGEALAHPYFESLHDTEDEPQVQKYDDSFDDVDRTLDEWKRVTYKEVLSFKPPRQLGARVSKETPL
Outline: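 Recombinant phosphorylated p38 MAPKγ preincubated 2 h at RT with compound in HEPES buffer, then 2 μM FRET peptide and 100 μM ATP added for 1 h; protease development 1 h. Coumarin/fluorescein emission ratio gave phosphorylation; IC50 from concentration-response versus uninhibited control.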

[2] = tested on: Balb/c mice; assay: LPS-induced neutrophil accumulation in mice; assay type: in vivo; details: for % inhibition of Influx / Neutrophil numbers in BAL 8 h pre-dose: 0.2 mg/mL, 8 h pre-dose; for inhibitory effects versus neutrophil influx into the BALF: dosed 8 hr before the inflammatory stimulus
Experimental: LPS-Induced Neutrophil Accumulation in Mice
Non-fasted Balb/c mice were dosed by the intra tracheal route with either vehicle, or the test substance at the indicated times (within the range 2-8 hr) before stimulation of the inflammatory response by application of an LPS challenge. At T=0, mice were placed into an exposure chamber and exposed to LPS. After a further 8 hr the animals were anesthetized, their tracheas cannulated and BALF extracted by infusing and then withdrawing from their lungs 1.0 mL of PBS via the tracheal catheter. Total and differential white cell counts in the BALF samples were measured using a Neubaur haemocytometer. Cytospin smears of the BALF samples were prepared by centrifugation at 200 rpm for 5 min at RT and stained using a DiffQuik stain system (Dade Behring). Cells were counted using oil immersion microscopy.

[3] = target: T2, p38 MAPKα isoform (MAPK14) (Homo sapiens, UniProt Q16539); assay: Enzyme inhibition assay (FRET, Z-LYTE), p38 MAPKα via MAPKAP-K2 activation; assay type: biochemical; details: read-out: Enzyme Inhibition IC50 p38α
T2 construct: purchased Invitrogen
Outline: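 Recombinant p38 MAPKα was preincubated with compound for 2 h at RT. Its activity was measured indirectly through activation/phosphorylation of downstream MAPKAP-K2, with a Z-LYTE FRET peptide read-out (coumarin/fluorescein ratio) after a 1 h development step. IC50 came from concentration-response curves of percent inhibition versus an uninhibited control.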

[4] = tested on: TNFα release in d-U937 cells; assay: LPS-induced TNFα release in d-U937 cells; assay type: cell-based, human; details: Homo sapiens, dU937, relative to 10 μg/mL BIRB796, read-out: LPS/TNFα REC50 d-U937
Outline: (§1)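 PMA-differentiated (100 ng/ml, 48–72 hr) U937 macrophage-type cells pre-incubated 2 hr with compound, then stimulated 4 hr with 0.1 μg/mL E. coli O111:B4 LPS; supernatant TNFα and IL-8 measured by sandwich ELISA. TNFα inhibition expressed relative to 10 μg/mL BIRB796, giving REC50; IL-8 inhibition versus vehicle, giving IC50.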

[5] = tested on: Differentiated U937 cells; assay: Cell viability MTT assay; assay type: cell-based, human; details: negative = apparent increase in viability; for MTT Assay (Viability) 4 h d-U937, percentage loss of cell viability: 4 hr in 5% FCS; for MTT Assay (Viability) 24 h d-U937, percentage loss of cell viability: 24 h in 10% FCS
Outline: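 Differentiated U937 cells pre-incubated with compound either 4 hr in 5% FCS or 24 h in 10% FCS, then 1 hr MTT. Formazan dissolved in DMSO, absorbance at 550 nm. Percentage viability loss relative to 0.5% DMSO vehicle; apparent increases appear as negative percentages.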

[6] = tested on: TNFα release in THP-1 cells; assay: LPS-induced TNFα release in THP-1 cells; assay type: cell-based, human; details: Homo sapiens
Outline: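 Human monocytic THP-1 cells stimulated with 3 μg/mL E. coli LPS for 4 hr; supernatant TNFα measured by sandwich ELISA. Inhibition at each concentration versus vehicle control, IC50 from concentration-response curve.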

[7] = tested on: IL-8 release in d-U937 cells; assay: LPS-induced IL-8 release in d-U937 cells; assay type: cell-based, human; details: Homo sapiens, dU937
Outline: as §1

[8] = tested on: ICAM-1 induction in BEAS2B cells; assay: Poly I:C-induced ICAM-1 induction in BEAS2B cells; assay type: cell-based, human; details: Homo sapiens, BEAS-2B, read-out: PolyIC/ICAM1 IC50 BEAS2B
Outline: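 Human bronchial epithelial BEAS2B cells were pre-incubated with compound for 2 hr, then transfected with 1 μg/mL poly I:C. After 18 hr, surface ICAM-1 was measured by cell-based ELISA (OD450-655) and normalized to crystal violet cell counts (OD595). IC50 came from inhibition versus vehicle across the concentration-response curve.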

[9] = tested on: A/J mice; assay: Cigarette smoke model; assay type: in vivo; details: 1.75 μg/mouse (35 μL, bid, i.n.), cigarette smoke model
Experimental: A/J mice (males, 5 weeks old) were exposed to cigarette smoke (4% cigarette smoke, diluted with air) for 30 min/day for 11 days using a Tobacco Smoke Inhalation Experiment System for small animals (Model SIS-CS; Sibata Scientific Technology, Tokyo, Japan). Test substances were administered intra-nasally (35 μL of solution in 50% DMSO/PBS) twice daily for 3 days after the final cigarette smoke exposure. At 12 hr after the last dosing, each of the animals was anesthetized, the trachea cannulated and bronchoalveolar lavage fluid (BALF) was collected. The numbers of alveolar macrophages and neutrophils were determined by FACS analysis (EPICS® ALTRA II, Beckman Coulter, Inc., Fullerton, Calif., USA) using anti-mouse MOMA2 antibody (macrophage) or anti-mouse 7/4 antibody (neutrophil).
The data for cell numbers are shown as the mean±SEM.

T2 sequence (Q16539 whole entry, canonical isoform): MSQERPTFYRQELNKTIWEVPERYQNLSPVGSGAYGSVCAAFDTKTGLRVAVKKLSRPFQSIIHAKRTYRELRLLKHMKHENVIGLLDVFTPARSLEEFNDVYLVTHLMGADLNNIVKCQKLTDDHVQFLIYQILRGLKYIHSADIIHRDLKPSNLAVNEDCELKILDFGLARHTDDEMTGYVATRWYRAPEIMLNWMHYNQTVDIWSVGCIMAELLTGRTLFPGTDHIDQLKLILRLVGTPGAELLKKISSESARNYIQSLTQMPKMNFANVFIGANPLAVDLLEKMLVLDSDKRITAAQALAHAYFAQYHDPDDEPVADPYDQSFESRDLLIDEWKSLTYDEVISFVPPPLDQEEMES

Compound	IC50 [1] [nM]	IC50 [3] [nM]	EC50 [4] [nM]	IC50 [6] [nM]	IC50 [7] [nM]	% inhibition of Influx ([2]; Table 6) [%]	Neutrophil numbers in BAL 8 h pre-dose ([2]; Table 6)	inhibitory effects versus neutrophil influx into the BALF [2]	MTT Assay (Viability) 4 h d-U937, percentage loss of cell viability [5] [%]	MTT Assay (Viability) 24 h d-U937, percentage loss of cell viability [5] [%]	IC50 [8] [nM]	% inhibition of Influx ([2]; Table 5) [%]	Neutrophil numbers in BAL 8 h pre-dose ([2]; Table 5)	inhibition of LPS-induced neutrophil accumulation ([2]; 1.75 μg/mouse) [%]	neutrophil or macrophage accumulation into airways [9]
CC(C)(C)c1cc(NC(=O)Nc2ccc(Oc3ccnc(NC(=O)N4CCCC4)c3)c(Cl)c2Cl)n(-c2ccc(O)cc2)n1 [Example 75, N-(4-(4-(3-(3-tert-butyl-1-(4-hydroxyphenyl)-1H-pyrazol-5-yl)ureido)-2,3-dichlorophenoxy)pyridin-2-yl)pyrrolidine-1-carboxamide]	181	147	1.3	0.4	1.7	23	10.87 ± 2.13 × 10^5/mL	inhibitory effects; also recorded: particularly marked	−33.7	6.6	0.3	–	–	–	–
CCC(=O)O[C@]1(C(=O)SCF)[C@H](C)C[C@H]2[C@@H]3C[C@H](F)C4=CC(=O)C=C[C@]4(C)[C@@]3(F)[C@@H](O)C[C@@]21C [fluticasone propionate, reference compound]	–	–	–	–	–	–	–	–	–	–	–	–	–	> 80	did not inhibit
CN(C)[C@H]1CCN(C(=O)Nc2cc(Oc3ccc(NC(=O)Nc4cc(C(C)(C)C)nn4-c4ccc(O)cc4)c(Cl)c3Cl)ccn2)C1 [Example 80, (S)-N-(4-(4-(3-(3-tert-butyl-1-(4-hydroxyphenyl)-1H-pyrazol-5-yl)ureido)-2,3-dichlorophenoxy)pyridin-2-yl)-3-(dimethylamino) pyrrolidine-1-carboxamide]	59.3	12.3	0.8	0.6	3.6	–	–	inhibitory effects	−3.0	15.7	2.3	12	15.22 ± 2.34 × 10^5/mL	–	–
Cc1ccc(-n2nc(C(C)(C)C)cc2NC(=O)Nc2ccc(Oc3cc(NC(=O)NCCN(C)C)ncn3)c(Cl)c2Cl)cc1 [Example 24, 1-(3-tert-Butyl-1-p-tolyl-1H-pyrazol-5-yl)-3-(2,3-dichloro-4-(6-(3-(2-(dimethylamino)ethyl)ureido)pyrimidin-4-yloxy)phenyl)urea]	46.3	5.7	1.7	1.7	1.1	–	–	inhibitory effects	−17.7	39.5	10.5	9	15.71 ± 2.48 × 10^5/mL	–	–
COCC(=O)Nc1cc(Oc2ccc(NC(=O)Nc3cc(C(C)(C)C)nn3-c3ccc(C)cc3)c(Cl)c2C(F)(F)F)ccn1 [Example 37, N-(4-(4-(3-(3-tert-butyl-1-p-tolyl-1H-pyrazol-5-yl)ureido)-3-chloro-2-trifluoromethylphenoxy)pyridin-2-yl)-2-methoxyacetamide]	159	102	1.9	1.8	6.9	–	–	–	−0.4	24.7	4	–	–	–	–
CNCC(=O)Nc1cc(Oc2ccc(NC(=O)Nc3cc(C(C)(C)C)nn3-c3ccc(OC)cc3)c(Cl)c2Cl)ccn1 [Example 42, N-(4-(4-(3-(3-tert-butyl-1-(4-methoxyphenyl)-1H-pyrazol-5-yl)ureido)-2,3-dichlorophenoxy)pyridin-2-yl)-2-(methylamino)acetamide]	28	14.6	1.3	0.7	1.1	–	–	–	−4.4	67.9	3.1	–	–	–	–
CNC(=O)Nc1cc(Oc2ccc(NC(=O)Nc3cc(C(C)(C)C)nn3-c3ccc(C(=O)OC)cc3)c(Cl)c2Cl)ccn1 [Example 59, methyl 4-(3-tert-butyl-5-(3-(2,3-dichloro-4-(2-(3-methylureido)pyridin-4-yloxy)phenyl)ureido)-1H-pyrazol-1-yl)benzoate]	198	125	1.6	2	1.9	–	–	–	−24.8	0.0	0.9	–	–	–	–

Further molecules by falling IC50 [1], results first:

IC50 [1] [nM]	IC50 [3] [nM]	EC50 [4] [nM]	IC50 [6] [nM]	IC50 [7] [nM]	Compound	% inhibition of Influx ([2]; Table 6) [%]	Neutrophil numbers in BAL 8 h pre-dose ([2]; Table 6)	inhibitory effects versus neutrophil influx into the BALF [2]	MTT Assay (Viability) 4 h d-U937, percentage loss of cell viability [5] [%]	MTT Assay (Viability) 24 h d-U937, percentage loss of cell viability [5] [%]	IC50 [8] [nM]	% inhibition of Influx ([2]; Table 5) [%]	Neutrophil numbers in BAL 8 h pre-dose ([2]; Table 5)	inhibition of LPS-induced neutrophil accumulation ([2]; 1.75 μg/mouse) [%]	neutrophil or macrophage accumulation into airways [9]
3470	11.5	27	9.6	108	COCC(=O)Nc1cc(Oc2cc(Cl)c(NC(=O)Nc3cc(C(C)(C)C)nn3-c3ccc(C)cc3)cc2Cl)ccn1 [Example 39, N-(4-(4-(3-(3-tert-butyl-1-p-tolyl-1H-pyrazol-5-yl)ureido)-2,5-dichlorophenoxy)pyridin-2-yl)-2-methoxyacetamide]	–	–	–	6.5	−3.0	109	–	–	–	–
162	58.3	1.2	1.6	5.9	COCC(=O)Nc1cc(Oc2ccc(NC(=O)Nc3cc(C(C)(C)C)nn3-c3ccc(OC)cc3)c(Cl)c2Cl)ncn1 [Example 91, N-(6-(4-(3-(3-tert-butyl-1-(4-methoxyphenyl)-1H-pyrazol-5-yl)ureido)-2,3-dichlorophenoxy)pyrimidin-4-yl)-2-methoxyacetamide]	–	–	inhibitory effects; also recorded: particularly marked	−47.2	6.9	2.9	33	11.67 ± 2.07 × 10^5/mL	–	–
60.4	19.4	1.1	0.7	1.4	CC(C)(C)c1cc(NC(=O)Nc2ccc(Oc3ccnc(NC(=O)NCCN4CCOCC4)c3)c(Cl)c2Cl)n(-c2ccc(CO)cc2)n1 [Example 71, 1-(4-(4-(3-(3-tert-butyl-1-(4-hydroxymethylphenyl)-1H-pyrazol-5-yl)ureido)-2,3-dichlorophenoxy)pyridin-2-yl)-3-(2-morpholinoethyl) urea]	–	–	–	−20.5	84.3	1.9	–	–	–	–
